# Data taken from patent publication US9446119B2 (priority 2011, dated 2016).
# System: PBMCs
# Type: cell-based, human
Substance,S.I. (stimulation index: mean spots per well containing polypeptide/mean spots per background wells),number of subjects recognizing the peptide [subjects],IFNγ response to the VARV version of the polypeptide
18 (GVIFLISVIVLVCSCDGVIFLISVIVLVCSCN) [compound 18],2.1,–,–
CYIFHSDYQLFSDAKA,1.1,–,–
CYILHSDYQLFSDAKA [Polypeptide 6],3.5,3,–
DTFFRTSPMVIATTDI,1.1,–,–
DVLFRLENHAETLRAA,0.7,–,–
EVLFRLENHAETLRAA [Polypeptide 21],2.5,–,–
GVIFLISVIVLVCSCN,2.3,–,detected
KADGDDNEETLKQRLT,1,–,–
LYNKPLYEVNAIITLI,1,–,–
